Results taken from the supplement of paper PMC10307832.

Columns and labels:
Assay in all cases: relative viability (nuclei count vs DMSO), 5 days (fraction); higher = more cells survive
Selisistat + Navitoclax = compound: C1CC(C2=C(C1)C3=C(N2)C=CC(=C3)Cl)C(=O)N [Selisistat] + CC1(C)CCC(c2ccc(Cl)cc2)=C(CN2CCN(c3ccc(C(=O)NS(=O)(=O)c4ccc(N[C@H](CCN5CCOCC5)CSc5ccccc5)c(S(=O)(=O)C(F)(F)F)c4)cc3)CC2)C1 [Navitoclax] (partner 0.5 µM)
Method in brief: (§1)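 Relative viability divides the nuclei count in treated wells by that in vehicle wells. Lung cancer cell lines were seeded in 1536-well plates, dosed by pin tool the next day, and fixed and stained after 5 days in one step with final 0.05% Triton X-100, 1% formaldehyde and 1 ug/ml Hoechst. Dosing was a single drug or a fixed anchor-drug dose plus five library-drug doses (not always all listed) in √10 steps, and values are medians of duplicate plates imaged at 4×.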

Serdemetan + Phenformin = compound: c1ccc2c(CCNc3ccc(Nc4ccncc4)cc3)c[nH]c2c1 [Serdemetan] + N=C(N)NC(=N)NCCc1ccccc1 [Phenformin] (partner 250 µM)
Method in brief: as §1

Selisistat = compound: C1CC(C2=C(C1)C3=C(N2)C=CC(=C3)Cl)C(=O)N [Selisistat]
Method in brief: (§2)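 Only plates meeting two conditions passed: control CV below 25% and at least one doubling. Lung cancer cell lines, kept overnight at 37 °C in 1536-well plates, were pinned with five library-drug doses (not always all listed) √10 apart on vehicle-anchored plates and grown 5 days without medium change. A one-step fix, permeabilisation and Hoechst stain preceded 4× imaging and MetaXpress nuclear counting. Viability equals treated-well nuclei divided by vehicle-well nuclei, as the median over plates.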

Serdemetan = compound: c1ccc2c(CCNc3ccc(Nc4ccncc4)cc3)c[nH]c2c1 [Serdemetan]
Method in brief: as §2

Cell Line | relative viability (Selisistat + Navitoclax; first compound 0.4 µM) | relative viability (Selisistat + Navitoclax; first compound 1.265 µM) | relative viability (Selisistat + Navitoclax; first compound 4 µM) | relative viability (Selisistat + Navitoclax; first compound 12.65 µM) | relative viability (Selisistat + Navitoclax; first compound 40 µM) | relative viability (Serdemetan + Phenformin; first compound 0.04 µM) | relative viability (Serdemetan + Phenformin; first compound 0.1265 µM) | relative viability (Serdemetan + Phenformin; first compound 0.4 µM) | relative viability (Serdemetan + Phenformin; first compound 1.265 µM) | relative viability (Serdemetan + Phenformin; first compound 4 µM) | relative viability (Selisistat; 0.4 µM) | relative viability (Selisistat; 1.265 µM) | relative viability (Selisistat; 4 µM) | relative viability (Selisistat; 12.65 µM) | relative viability (Selisistat; 40 µM) | relative viability (Serdemetan; 0.04 µM) | relative viability (Serdemetan; 0.1265 µM) | relative viability (Serdemetan; 0.4 µM) | relative viability (Serdemetan; 1.265 µM) | relative viability (Serdemetan; 4 µM)
NCI-H2009 | 1.18 | 1.15 | 1.19 | 1.14 | 1.1 | 0.451 | 0.472 | 0.431 | 0.307 | 0.366 | 1.01 | 1.03 | 0.772 | 0.933 | 0.975 | 0.97 | 0.967 | 1 | 0.776 | 0.885
NCI-H2405 | 0.785 |  |  | 0.804 | 0.793 | 0.317 | 0.406 | 0.366 | 0.344 | 0.381 | 1.06 | 0.88 | 0.657 | 0.984 | 0.992 | 0.99 | 1.01 | 0.984 | 0.921 | 0.859
NCI-H1755 | 1.08 | 1.08 | 1 | 0.99 | 1.06 | 0.625 | 0.623 | 0.564 | 0.469 | 0.52 | 1.08 | 1.1 | 0.977 | 1.01 | 1.08 | 1 | 0.975 | 0.959 | 0.775 | 0.763
HCC-78 | 0.961 | 0.836 | 0.765 | 0.705 | 0.714 | 0.612 | 0.581 | 0.595 | 0.581 | 0.516 | 0.954 | 1.08 | 0.7 | 0.875 | 0.939 | 0.998 | 0.752 | 0.842 | 0.828 | 0.648
LOU-NH91 | 0.695 | 0.637 | 0.58 | 0.664 | 0.707 | 0.699 | 0.733 | 0.478 | 0.669 | 0.665 | 1.05 | 0.938 | 0.884 | 0.966 | 0.973 | 1.02 | 0.946 | 0.694 | 0.783 | 0.999
NCI-H3122 | 1.01 | 1.02 | 0.935 | 1.04 | 0.961 | 0.302 | 0.363 | 0.352 | 0.236 | 0.311 | 1.03 | 1.07 | 0.782 | 1.03 | 1.02 | 0.995 | 0.984 | 0.948 | 0.758 | 1.02
HCC-827 | 1.03 | 0.992 | 1.01 | 1.01 | 1.01 | 0.415 | 0.406 |  | 0.314 | 0.366 | 1.02 | 1.04 | 0.952 | 0.975 | 1 | 1.04 | 0.972 |  | 0.862 | 0.83
SK-LU-1 | 1.08 | 0.897 | 1.05 | 0.837 | 0.893 | 0.484 | 0.573 | 0.538 |  | 0.343 | 1.08 | 1.07 | 1.08 | 1.08 | 1.13 | 1.02 | 0.999 | 1.1 | 0.802 | 0.828
NCI-H1975 | 1.08 | 0.913 | 1.05 | 0.982 | 0.976 | 0.401 | 0.416 | 0.427 |  | 0.415 | 0.952 | 0.839 | 0.763 | 0.825 | 0.836 | 0.934 | 0.978 | 0.919 | 0.937 | 0.993
NCI-H1651 | 0.902 | 0.974 | 0.934 | 1 | 0.945 | 0.283 | 0.319 | 0.224 | 0.205 | 0.213 | 0.995 | 0.958 | 0.893 | 0.924 | 0.949 | 0.847 | 0.899 | 0.832 | 0.507 | 0.399
NCI-H441 | 0.608 | 0.619 |  | 0.697 | 0.626 | 0.793 | 0.917 | 0.791 | 0.709 | 0.517 | 1.22 | 1.11 | 0.774 | 0.955 | 1.01 | 0.981 | 1.06 | 1.06 | 0.815 | 0.78
LCLC-97TM1 | 0.535 | 0.476 | 0.621 | 0.473 | 0.483 | 0.455 | 0.382 | 0.463 |  | 0.41 | 0.941 | 0.933 |  | 0.962 | 1.09 | 1.08 | 0.975 | 0.925 | 0.802 | 0.894
NCI-H727 | 0.501 | 0.445 |  |  | 0.38 | 0.592 | 0.558 | 0.642 | 0.288 | 0.418 | 0.95 | 1 |  | 0.863 | 0.895 | 0.936 | 0.808 | 1.07 | 0.669 | 0.555
NCI-H1355 | 1.01 | 0.887 |  | 1.03 | 1.03 | 0.447 | 0.444 | 0.466 | 0.332 | 0.432 | 1.02 | 0.987 | 0.832 | 0.97 | 1.03 | 0.99 | 1.05 | 0.907 | 0.936 | 0.918
HOP-62 | 1.07 | 0.905 | 1.02 | 0.934 | 1.16 | 0.718 | 0.63 | 0.721 | 0.548 | 0.583 | 0.997 | 0.987 | 0.861 | 0.928 | 1.07 | 1.03 | 0.999 | 1.01 | 0.873 | 0.907
NCI-H2085 | 1.16 | 1.15 | 1.12 | 1.15 | 1.21 | 0.778 | 0.762 | 0.634 | 0.571 | 0.424 | 1.11 | 0.991 | 0.858 | 0.965 | 1.05 | 0.964 | 0.968 | 0.897 | 0.844 | 0.744
